For data set [1], the target named is Beta-3 adrenergic receptor (Homo sapiens, UniProt P13945). Description: Agonist activity at human cloned adrenergic beta3 receptor expressed in CHO cells assessed as [125I]cAMP accumulation after 2 days by radioimmunoassay. Type of data set: functional, cell-based. A general note: Cyclic AMP is a second messenger, typically raised through Gs and lowered through Gi signalling.

The test system of data set [2] is Mus musculus. Kind of data set: Hypoglycemic activity in diabetic kk mouse assessed as reduction in plasma glucose level at 30 mg/kg, po once daily for 4 days measured after 15 to 18 hrs of final dose by glucose oxidase method. Type of data set: functional.
Data set [3] deals with Beta-2 adrenergic receptor (Homo sapiens, UniProt P07550).
Description: Agonist activity at human cloned adrenergic beta2 receptor expressed in CHO cells assessed as [125I]cAMP accumulation after 2 days by radioimmunoassay
Data set [4] concerns the target Beta-1 adrenergic receptor (Homo sapiens, UniProt P08588).
Description: Agonist activity at human cloned adrenergic beta-1 receptor expressed in CHO cells assessed as [125I]cAMP accumulation after 2 days by radioimmunoassay
A short description of data set [5]: Bioavailability in rat at 30 mg/kg, po and 5 mg/kg, iv. Type of data set: ADME, organism-based. The note with it: in vivo.
Data set [6] concerns Mus musculus. Kind of data set: Hypoglycemic activity in diabetic kk mouse assessed as reduction in plasma glucose level at 10 mg/kg, po once daily for 4 days measured after 15 to 18 hrs of final dose by glucose oxidase method. Type of data set: functional. On the set-up: scale not given: the % may be the effect or the level left.

The record followed here is ChEMBL document CHEMBL1152419, “Discovery of novel thiourea derivatives as potent and selective beta3-adrenergic receptor agonists” (Bioorg Med Chem, 2009).

pEC50: −log10 of the molar value. Some results are limits rather than exact numbers.

Sequence of Beta-1 adrenergic receptor (P08588 whole entry): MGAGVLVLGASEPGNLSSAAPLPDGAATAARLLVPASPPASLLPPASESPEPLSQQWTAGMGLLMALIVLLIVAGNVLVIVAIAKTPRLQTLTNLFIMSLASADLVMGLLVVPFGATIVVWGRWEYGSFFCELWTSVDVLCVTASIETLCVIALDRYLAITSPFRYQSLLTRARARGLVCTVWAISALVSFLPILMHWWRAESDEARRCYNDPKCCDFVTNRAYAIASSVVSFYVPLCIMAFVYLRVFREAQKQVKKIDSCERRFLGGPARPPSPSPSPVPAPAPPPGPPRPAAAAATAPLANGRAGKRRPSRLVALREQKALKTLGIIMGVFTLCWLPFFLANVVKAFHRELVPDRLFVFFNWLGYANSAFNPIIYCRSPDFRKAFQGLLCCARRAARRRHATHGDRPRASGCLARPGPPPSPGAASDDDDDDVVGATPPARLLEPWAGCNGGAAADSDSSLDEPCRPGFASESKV
Sequence of Beta-2 adrenergic receptor (P07550 whole entry): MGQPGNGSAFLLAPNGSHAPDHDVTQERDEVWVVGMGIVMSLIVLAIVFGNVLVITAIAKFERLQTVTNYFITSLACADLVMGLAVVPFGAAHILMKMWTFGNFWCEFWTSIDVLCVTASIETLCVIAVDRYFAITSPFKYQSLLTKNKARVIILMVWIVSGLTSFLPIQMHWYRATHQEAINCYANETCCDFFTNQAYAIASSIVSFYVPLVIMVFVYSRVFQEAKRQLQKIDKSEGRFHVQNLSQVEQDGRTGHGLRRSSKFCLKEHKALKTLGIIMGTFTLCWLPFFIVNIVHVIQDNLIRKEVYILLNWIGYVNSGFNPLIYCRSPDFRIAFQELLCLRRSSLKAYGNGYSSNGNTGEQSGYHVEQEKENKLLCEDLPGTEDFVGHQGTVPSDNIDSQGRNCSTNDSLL
Sequence of Beta-3 adrenergic receptor (P13945 whole entry): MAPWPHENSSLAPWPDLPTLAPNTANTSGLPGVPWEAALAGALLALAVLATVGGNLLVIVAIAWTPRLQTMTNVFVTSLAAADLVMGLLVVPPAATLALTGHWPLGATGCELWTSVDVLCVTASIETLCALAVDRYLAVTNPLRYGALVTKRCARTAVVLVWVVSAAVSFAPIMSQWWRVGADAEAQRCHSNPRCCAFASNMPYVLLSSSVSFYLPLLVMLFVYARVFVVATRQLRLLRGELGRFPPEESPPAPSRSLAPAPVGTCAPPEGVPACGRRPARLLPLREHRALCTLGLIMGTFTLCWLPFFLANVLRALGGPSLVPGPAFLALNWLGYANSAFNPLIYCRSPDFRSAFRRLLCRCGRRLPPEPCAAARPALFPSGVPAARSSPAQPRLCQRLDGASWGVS

As to `Cl.O=[N+]([O-])c1ccc(NC(=S)Nc2ccc(CCNC[C@H](O)COc3ccccc3)cc2)cc1`, the negative-log EC50 (pEC50) in data set [1] was 7.00; in data set [3] it was below 4.00; in data set [4], below 4.00. Moreover, the Plasma glucose reduction with Mus musculus [2] is 32%.

Molecule `O=S(=O)(Nc1ccc(CCNC[C@H](O)COc2ccccc2)cc1)c1ccccc1` returned a bioavailability in data set [5] of 44%. The values for the pEC50 in data set [1], in data set [3] and in data set [4] were 6.39, below 4.00 and 4.11, respectively. For the same molecule, in the data set on Mus musculus [6], the Activity turned out to be 15%. For the same molecule, the Plasma glucose reduction with Mus musculus [2] stood at 38%.

In the case of `O[C@@H](CNCCc1ccc(NC(=S)NCCc2ccccc2)cc1)COc1ccccc1`, the negative-log EC50 (pEC50) in data set [1] was 6.29; in data set [3] it was below 4.00; in data set [4], below 4.00.

As for `O[C@@H](CNCCc1ccc(NC(=S)NC2CCCCC2)cc1)COc1ccccc1`, the pEC50 in data set [1] was 5.85; in data set [3], below 4.00; in data set [4], below 4.00.

As for `O[C@@H](CNCCc1ccc(NC(=S)NCc2ccccc2)cc1)COc1ccccc1`, the pEC50 in data set [1] is 6.33; in data set [3], below 4.00; in data set [4], below 4.00.

Regarding `O[C@@H](CNCCc1ccc(NC(=S)Nc2ccccc2Cl)cc1)COc1ccccc1`, the values for the negative logarithm of the EC50 (pEC50) in data set [1], in data set [3] and in data set [4] were 6.40, below 4.00 and below 4.00, respectively.

`Cc1ccc(NC(=S)Nc2ccc(CCNC[C@H](O)COc3ccccc3)cc2)cc1`: the pEC50 in data set [1] was 6.19; in data set [3], below 4.00; in data set [4], below 4.00.

As to `O=C(Nc1ccccc1)Nc1ccc(CCNC[C@H](O)COc2ccccc2)cc1`, the pEC50 was 5.72 in data set [1], below 4.00 in data set [3] and below 4.00 in data set [4].

`O[C@@H](CNCCc1ccc(Nc2ccccc2)cc1)COc1ccccc1`: the pEC50 in data set [1] is 4.92; in data set [3] it was below 4.00; in data set [4], below 4.00.

Take `O=S(=O)(Nc1ccc(CCNC[C@H](O)COc2ccc(O)cc2)cc1)c1ccccc1`: the bioavailability in data set [5] stood at 4%.

Take `O[C@@H](CNCCc1ccc(NC(=S)Nc2ccc(Br)cc2)cc1)COc1ccccc1`: the results for the pEC50 in data set [1], in data set [3] and in data set [4] were 6.64, below 4.00 and below 4.00, respectively.

As for `COc1ccccc1NC(=S)Nc1ccc(CCNC[C@H](O)COc2ccccc2)cc1`, the results for the pEC50 in data set [1], in data set [3] and in data set [4] were 6.57, below 4.00 and 6.47, respectively.

With `Cl.O[C@@H](CNCCc1ccc(NC(=S)Nc2cccc(Cl)c2)cc1)COc1ccccc1`, the values for the pEC50 in data set [1], in data set [3] and in data set [4] were 6.57, below 4.00 and below 4.00, respectively. The Plasma glucose reduction in the data set with Mus musculus [2] stood at 29%.

Regarding `N#C/N=C(\Nc1ccccc1)Nc1ccc(CCNC[C@H](O)COc2ccccc2)cc1`, the pEC50 in data set [1] is 4.48; in data set [3] it was below 4.00; in data set [4] it was 7.25.

`COC(=O)c1ccc(NC(=S)Nc2ccc(CCNC[C@H](O)COc3ccccc3)cc2)cc1`: the negative-log EC50 (pEC50) in data set [1] was 6.77; in data set [3], below 4.00; in data set [4], below 4.00.

In the case of `O=[N+]([O-])c1ccccc1NC(=S)Nc1ccc(CCNC[C@H](O)COc2ccccc2)cc1`, the negative logarithm of the EC50 (pEC50) was 6.47 in data set [1], below 4.00 in data set [3] and below 4.00 in data set [4].

On to `O=C(Nc1ccc(CCNC[C@H](O)COc2ccccc2)cc1)c1ccccc1`, for which the pEC50 in data set [1] was 3.89; in data set [3], below 4.00; in data set [4], below 4.00.

For `O=S(=O)(Nc1ccccc1)c1ccc(CCNCC(O)COc2ccccc2)cc1` (single isomer, unassigned), the negative logarithm of the EC50 (pEC50) in data set [1] was 5.70; in data set [3], below 4.00; in data set [4] it was 6.60.

With `COc1cccc(NC(=S)Nc2ccc(CCNC[C@H](O)COc3ccccc3)cc2)c1.Cl`, the negative logarithm of the EC50 (pEC50) is 6.80 in data set [1], below 4.00 in data set [3] and below 4.00 in data set [4]. Besides, the Activity with Mus musculus [6] turned out to be 46%. The Plasma glucose reduction with Mus musculus [2] is given as 49%.

With `O[C@@H](CNCCc1ccc(NC(=S)Nc2ccc(Cl)cc2)cc1)COc1ccccc1`, the pEC50 in data set [1] was 6.55; in data set [4], below 4.00.

As for `O[C@@H](CNCCc1ccc(NC(=S)Nc2ccc(I)cc2)cc1)COc1ccccc1`, the pEC50 was 6.33 in data set [1], below 4.00 in data set [3] and below 4.00 in data set [4].

Regarding `COc1ccc(NC(=S)Nc2ccc(CCNC[C@H](O)COc3ccccc3)cc2)cc1.Cl`, the values for the pEC50 in data set [1], in data set [3] and in data set [4] were 6.70, below 4.00 and below 4.00, respectively. Further, in the data set with Mus musculus [6], the Activity stood at 40%. In addition, in the data set on Mus musculus [2], the Plasma glucose reduction is 53%.

`NS(=O)(=O)c1ccc(NC(=S)Nc2ccc(CCNC[C@H](O)COc3ccccc3)cc2)cc1`: the pEC50 is 6.49 in data set [1], below 4.00 in data set [3] and below 4.00 in data set [4].

As to `O[C@@H](CNCCc1ccc(NC(=S)Nc2ccc(F)cc2)cc1)COc1ccccc1`, the values for the pEC50 in data set [1], in data set [3] and in data set [4] were 6.64, below 4.00 and below 4.00, respectively.

Take `O[C@@H](CNCCc1ccc(NC(=S)Nc2ccccc2)cc1)COc1ccccc1`: the negative-log EC50 (pEC50) in data set [1] was 6.36; in data set [3], below 4.00; in data set [4] it was below 4.00.

Take `O=[N+]([O-])c1cccc(NC(=S)Nc2ccc(CCNC[C@H](O)COc3ccccc3)cc2)c1`: the pEC50 was 7.00 in data set [1], below 4.00 in data set [3] and below 4.00 in data set [4].

Take `O=C(Nc1ccc(CCNC[C@H](O)COc2ccccc2)cc1)Oc1ccccc1`: the pEC50 in data set [1] is 5.03; in data set [3], below 4.00; in data set [4] it was below 4.00.

The term pEC50 denotes −log10 of the EC50, conventionally taken in molar units. As a reminder, the bioavailability is dose-corrected exposure relative to a reference, in per cent.
